Where two headings read alike, the source gives them in different places.
How the values were obtained:
[1] = target: T1, Gluocorticoid receptor of thymus of rats (Rattus norvegicus, UniProt P06536); test: Glucocorticoid receptor binding (displacement of tritiated dexamethasone); settings: for affinity for glucocorticoid receptors (in words): conclusion
T1 construct: The thymus were removed and homogenized at 0° C; from tissue; host or cells: rat thymus, 105,000 g supernatant (adrenalectomized male Sprague-Dawley rats)
T1 sequence (P06536 1-795): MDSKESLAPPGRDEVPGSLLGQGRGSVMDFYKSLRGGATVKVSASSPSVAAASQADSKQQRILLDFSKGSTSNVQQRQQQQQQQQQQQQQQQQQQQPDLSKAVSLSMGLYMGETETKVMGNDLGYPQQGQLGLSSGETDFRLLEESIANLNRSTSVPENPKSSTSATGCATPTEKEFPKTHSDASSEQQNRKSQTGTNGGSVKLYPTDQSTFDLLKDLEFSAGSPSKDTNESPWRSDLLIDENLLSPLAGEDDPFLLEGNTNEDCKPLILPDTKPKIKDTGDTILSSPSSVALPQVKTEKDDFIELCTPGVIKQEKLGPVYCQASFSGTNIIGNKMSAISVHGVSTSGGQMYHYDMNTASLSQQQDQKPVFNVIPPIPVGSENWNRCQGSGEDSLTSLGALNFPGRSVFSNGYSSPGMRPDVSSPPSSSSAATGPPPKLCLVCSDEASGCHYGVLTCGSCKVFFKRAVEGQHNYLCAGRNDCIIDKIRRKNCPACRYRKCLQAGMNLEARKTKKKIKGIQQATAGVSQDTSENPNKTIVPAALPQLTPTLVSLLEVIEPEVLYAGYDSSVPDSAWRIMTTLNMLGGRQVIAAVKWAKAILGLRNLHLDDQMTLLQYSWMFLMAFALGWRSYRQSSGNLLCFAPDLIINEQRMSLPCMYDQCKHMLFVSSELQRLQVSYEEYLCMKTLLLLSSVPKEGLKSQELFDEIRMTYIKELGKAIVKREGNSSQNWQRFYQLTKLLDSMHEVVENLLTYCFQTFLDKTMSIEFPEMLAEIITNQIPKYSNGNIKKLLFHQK
Description: D. Gluocorticoid receptor of thymus of rats
Male Sprague-Dawley EPOS rats weighing 160 to 200 g were surrenalectomized and the animals were killed 4 to 8 days later. The thymus were removed and homogenized at 0° C. in a buffered TS solution of 10 mM, Tris, 0.25M of Saccharose, 2 mM of dithiothreitol HCl for a pH of 7.4 using a polytetrafluoroethylene-glass Potter at a rate of 1 g of tissue per 10 ml of TS. […] The concentration of tied tritiated dexamethasone (B) was measured for each incubate by the adsorption on carbon-dextran technique.
(§1) The calculation of the relative affinity of […] (ARL) was identical for all of the above receptor tests. One traced the following two curves: the percentage of tied tritiated hormone B/T as a function of the logarithm of the cold hormone concentration and B/T as a function of the logarithm of the concentration of the cold test product. One determined the line of the equation. [formula]
(§2) The intersection of the I50 line and the curves permits one to determine the concentrations of the cold hormone of the reference (CH) and the cold test compound (CX) which inhibit by 50% the tieing of tritiated hormone with the receptor. The relative affinity of tieing (ARL) of the test product was determined by the equation: [formula]

[2] = target: T2, Estrogen receptor of uterus of mice (Mus musculus, UniProt P19785); test: Estrogen receptor binding (displacement of tritiated estradiol)
T2 construct: the uterus were removed and homogenized at 0° C; from tissue; host or cells: mouse uterus, 105,000 g supernatant (immature females 18 to 21 days old)
T2 sequence (P19785 1-599): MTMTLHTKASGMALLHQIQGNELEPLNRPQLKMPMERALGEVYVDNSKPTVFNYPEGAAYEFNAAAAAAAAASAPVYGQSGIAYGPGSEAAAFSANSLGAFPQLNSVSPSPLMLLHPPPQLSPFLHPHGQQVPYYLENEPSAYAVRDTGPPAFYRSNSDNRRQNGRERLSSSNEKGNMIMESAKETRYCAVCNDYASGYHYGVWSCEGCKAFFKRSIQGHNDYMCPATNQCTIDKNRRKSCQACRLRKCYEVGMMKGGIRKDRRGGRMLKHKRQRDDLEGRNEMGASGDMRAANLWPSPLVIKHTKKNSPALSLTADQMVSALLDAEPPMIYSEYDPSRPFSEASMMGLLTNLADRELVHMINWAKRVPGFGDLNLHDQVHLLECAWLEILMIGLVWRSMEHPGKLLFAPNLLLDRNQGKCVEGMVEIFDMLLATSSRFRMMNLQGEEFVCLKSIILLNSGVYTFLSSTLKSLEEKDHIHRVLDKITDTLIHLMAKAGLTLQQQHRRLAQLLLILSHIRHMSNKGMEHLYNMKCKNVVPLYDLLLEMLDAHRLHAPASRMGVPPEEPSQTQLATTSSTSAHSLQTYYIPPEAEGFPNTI
Description: E. Estrogen receptor of uterus of mice
Immature female mice 18 to 21 days old were killed and the uterus were removed and homogenized at 0° C. with a polytetrafluoroethylene-glass Potter in a buffered TS solution consisting of 10 mM, Tris, 0125M Saccharose, HCl for a pH of 7.4 at a rate of 1 g of tissue per 25 ml of TS. The homogenate was then ultracentrigued at 105,000 g for 90 minutes at 0° C. and aliquoits of the resulting […] were incubated at 0° C. for a time (t) with a constant concentration (T) of tritiated estradiol in the presence of increasing concentrations (0 to 1000×10^-9 M) of either cold estradiol or cold test compound. The concentration of tied tritiated estradiol (B) was measured for each incubate by the technique of adsorption on carbon-dextran.
as §1, §2

[3] = tested on: thymocytes of surrenalectomized rats; test: Antiglucocorticoidal activity, incorporation of tritiated uridine in thymocytes; format: cell-based; settings: for opposition to the effect of dexamethasone on tritiated uridine incorporation (in words): with 5×10^-8 M dexamethasone; for inhibition at 0.1 µM: 5 × 10^-8 M dexamethasone + test product 10^-7 M; for inhibition at 0.01 µM: 5 × 10^-8 M dexamethasone + test product 10^-8 M
Description: III. Antiglucocorticoidal Activity
The test used was that of Dausse et al [Molecular Pharmacology, Vol. 13 (1977), p. 948-955] entitled "The relationship between glucocorticoid structure and effects upon thymocytes" for […] thymocytes. The thymocytes of surrenalectomized rats were incubated at 37° C. for 3 hours in a nutritive medium containing 5×10^-8 M of dexamethasone in the presence or absence of the test compound at different concentrations. Tritiated uridine was added and incubation was continued for one hour. The incubates were cooled and treated with a 5% trifluoroacetic acid solution and the mixture was filtered with Whatman GF/A paper. The filter was washed 3 times with a 5% trifluoroacetic acid solution and retained radioactivity on the filter was determined.

[4] = second table, incubation 4 H at 0° C.
[5] = second table, incubation 24 H at 0° C.
[6] = second table, incubation 2 H at 0° C.
[7] = second table, 5 × 10^-8 M dexamethasone + test product 10^-6 M
[8] = Rattus norvegicus, Thymocyte, second table, read-out: % of inhibition of effect of Dexamethasone
[9] = Rattus norvegicus, Thymocyte, read-out: % inhibition of effect of Dexamethasone

SMILES	affinity for glucocorticoid receptors (in words) [1]	relative affinity of tieing (ARL), Glucocorticoid [1, 4]	relative affinity of tieing (ARL), Glucocorticoid [1, 5]	relative affinity of tieing (ARL), Estrogen [2, 6]	% of inhibition of effect of Dexamethasone (symbol) [3, 7]	opposition to the effect of dexamethasone on tritiated uridine incorporation (in words) [3]	also measured
C=CC[C@]1(O)CC[C@H]2[C@@H]3CCC4=CC(=O)CCC4=C3[C@@H](c3ccc(N(C)C)cc3)C[C@@]21C [Example 37, 11β-[4-(N,N-dimethylamino)-phenyl]-17α-(prop-2-enyl)-Δ^4,9-estradien-17β-ol-3-one]	very remarkable affinity	178	221	0	* (A dose of 10^-6 M inhibited totally the effect of dexamethasone)	opposed this effect	
CC#C[C@]1(O)CC[C@H]2[C@@H]3CCC4=CC(=O)[C@H](C)CC4=C3[C@@H](c3ccc(N(C)C)cc3)C[C@@]21C [Example 5, 2α-methyl-11β-(4-dimethylaminophenyl)-17α-(prop-1-ynyl)-Δ^4,9-estradiene-17β-ol-3-one]	very remarkable affinity					opposed this effect	
C=C(C)C#C[C@]1(O)CC[C@H]2[C@@H]3CCC4=CC(=O)CCC4=C3[C@@H](c3ccc(N(C)C)cc3)C[C@@]21C [Example 23, 11β-[4-(N,N-dimethylamino)-phenyl]-23-methyl-19,21-dinor-17α-Δ^4,9,23-cholatriene-20-yn-17β-ol-3-one]		212	167	0	* (A dose of 10^-6 M inhibited totally the effect of dexamethasone)	opposed this effect	inhibition at 0.1 µM [3, 8]: 53%; inhibition at 0.01 µM [3, 8]: 22%
CN(C)c1ccc([C@H]2C[C@@]3(C)[C@@H](CC[C@@]3(O)C#Cc3ccccc3)[C@@H]3CCC4=CC(=O)CCC4=C32)cc1 [Example 29, 11β-[4-(N,N-dimethylamino)-phenyl]-21-phenyl-19-nor-17α-Δ^4,9-pregnadiene-20-yne-17β-ol-3-one]		46	94	0	* (A dose of 10^-6 M inhibited totally the effect of dexamethasone)	opposed this effect	inhibition at 0.1 µM [3, 8]: 57%; inhibition at 0.01 µM [3, 8]: 18%
CC#C[C@]1(O)CC[C@H]2[C@@H]3CCC4=CC(=O)[C@H](C)CC4=C3[C@@H](c3ccc(N(C)C)cc3)C[C@@]21C [5 (2α), 2α-methyl-11β-(4-dimethylaminophenyl)-17α-(prop-1-ynyl)-Δ^4,9-estradiene-17β-ol-3-one]							relative affinity of tieing (ARL), Glucocorticoid ([1]; incubation 4 H at 0° C.): 214; relative affinity of tieing (ARL), Glucocorticoid ([1]; incubation 24 H at 0° C.): 255; relative affinity of tieing (ARL), Estrogen ([2]; incubation 2 H at 0° C.): < 0,1; relative affinity of tieing (ARL), Estrogen ([2]; incubation 5 H (25° C.)): < 0,1; inhibition at 1 µM ([3]; Rattus norvegicus, Thymocyte, 5 × 10^-8 M dexamethasone + test product 10^-6 M, read-out: % inhibition of effect of Dexamethasone): 100%; inhibition at 0.1 µM [3, 9]: 57%; inhibition at 0.01 µM [3, 9]: 19%
CN(C)c1ccc([C@H]2C[C@@]3(C)[C@@H](CC[C@@]3(O)C#C[Si](C)(C)C)[C@@H]3CCC4=CC(=O)CCC4=C32)cc1 [Example 44, 11β-[4-(N,N-dimethylamino)-phenyl]-21-trimethylsilyl-19-nor-17α-Δ^4,9-pregnadiene-20-yne-17β-ol-3-one]		79	104	0			
CC#C[C@]1(O)CC[C@H]2[C@@H]3CCC4=CC(=O)CCC4=C3[C@@H](c3ccc(N(C)C)cc3)C[C@@]21C [Example 19, 11β-[4-(N,N-dimethylamino)-phenyl]-17α-(prop-1-ynyl)-Δ^4,9-estradiene-17β-ol-3-one]	very remarkable affinity					opposed this effect	
C[C@]12C[C@H](c3ccc([N+](C)(C)[O-])cc3)[C@]34O[C@]35CCC(=O)C=C5CC[C@H]4[C@@H]1CC[C@@]2(O)C#CCl [Example 27, N-oxide of 11β-[4-(N,N-dimethylamino)-phenyl]-9α,10α-epoxy-21-chloro-19-nor-17α-Δ^4-pregnene-20-yne-17β-ol-3-one]		5,3	6,2	0			
C#C[C@]1(O)CC[C@H]2[C@@H]3CCC4=CC(=O)CCC4=C3[C@@H](c3ccc(N(C)C)cc3)C[C@@]21C [Example 32, 11β-[4-(N,N-dimethylamino)-phenyl]-17α-ethynyl-Δ^4,9-estradiene-17β-ol-3-one]	very remarkable affinity	279	235	0			

Source: patent US5043332A, “Novel 11β-substituted -19-nor-steriods” (priority 1981, dated 1991)
